Data: ChEMBL document CHEMBL1201862, “PubChem BioAssay data set” (2004)
The source made the active and inactive calls.

Experiments:
Streptococcus = assay: GAS UMAA2166 growth inhibition – luminescence, BacTiterGlo, counter-screen for streptokinase expression inhibitor project, dose response (AID 1915); format: functional, organism-based;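 also: potency for reduction of bacterial viability or growth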
Protein RecA = biological target: T1, Protein RecA (Mycobacterium tuberculosis, UniProt P9WHJ3); assay: Fluorescence Cell-Free Homogeneous Dose Retest to Identify Inhibitors of RecA-Intein Splicing Activity. [Related pubchem assays (depositor defined):AID2097, AID2223, AID489010, AID492950]; format: functional
T1 sequence (P9WHJ3 whole entry): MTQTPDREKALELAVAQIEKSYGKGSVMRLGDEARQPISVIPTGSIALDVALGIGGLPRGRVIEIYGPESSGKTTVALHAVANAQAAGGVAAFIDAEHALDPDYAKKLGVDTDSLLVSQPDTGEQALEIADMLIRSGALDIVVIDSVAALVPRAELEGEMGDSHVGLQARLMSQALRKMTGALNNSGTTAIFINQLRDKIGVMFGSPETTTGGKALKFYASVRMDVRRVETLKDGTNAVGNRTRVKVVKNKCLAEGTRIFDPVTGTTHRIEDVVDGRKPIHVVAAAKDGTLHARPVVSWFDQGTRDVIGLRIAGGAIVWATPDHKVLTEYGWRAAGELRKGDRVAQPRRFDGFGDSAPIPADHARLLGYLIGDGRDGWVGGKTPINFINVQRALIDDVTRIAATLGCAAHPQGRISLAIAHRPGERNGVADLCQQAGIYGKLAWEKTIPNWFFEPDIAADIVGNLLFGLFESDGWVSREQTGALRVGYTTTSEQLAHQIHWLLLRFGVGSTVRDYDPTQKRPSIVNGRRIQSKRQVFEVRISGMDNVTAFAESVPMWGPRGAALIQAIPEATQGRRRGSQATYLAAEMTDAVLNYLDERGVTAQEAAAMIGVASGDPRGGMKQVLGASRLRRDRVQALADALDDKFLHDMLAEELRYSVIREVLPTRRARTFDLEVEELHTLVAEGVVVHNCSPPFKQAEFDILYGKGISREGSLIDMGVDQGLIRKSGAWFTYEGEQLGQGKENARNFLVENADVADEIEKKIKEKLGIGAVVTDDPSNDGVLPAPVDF

Estrogen receptor beta = Estrogen receptor beta (Homo sapiens, UniProt Q92731);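 also: recombinant ER-beta bound to coactivator SRC1 peptide in presence of estradiol agonist; inhibitors block coactivator peptide binding and lower the FRET signal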
[1] = biological target: T2, Sentrin-specific protease 7 (Homo sapiens, UniProt Q9BQF6); format: functional;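 also: Luminescence-based dose-response confirmation of ultra-high-throughput screening hits, measuring inhibition of SENP7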
T2 sequence (Q9BQF6 whole entry): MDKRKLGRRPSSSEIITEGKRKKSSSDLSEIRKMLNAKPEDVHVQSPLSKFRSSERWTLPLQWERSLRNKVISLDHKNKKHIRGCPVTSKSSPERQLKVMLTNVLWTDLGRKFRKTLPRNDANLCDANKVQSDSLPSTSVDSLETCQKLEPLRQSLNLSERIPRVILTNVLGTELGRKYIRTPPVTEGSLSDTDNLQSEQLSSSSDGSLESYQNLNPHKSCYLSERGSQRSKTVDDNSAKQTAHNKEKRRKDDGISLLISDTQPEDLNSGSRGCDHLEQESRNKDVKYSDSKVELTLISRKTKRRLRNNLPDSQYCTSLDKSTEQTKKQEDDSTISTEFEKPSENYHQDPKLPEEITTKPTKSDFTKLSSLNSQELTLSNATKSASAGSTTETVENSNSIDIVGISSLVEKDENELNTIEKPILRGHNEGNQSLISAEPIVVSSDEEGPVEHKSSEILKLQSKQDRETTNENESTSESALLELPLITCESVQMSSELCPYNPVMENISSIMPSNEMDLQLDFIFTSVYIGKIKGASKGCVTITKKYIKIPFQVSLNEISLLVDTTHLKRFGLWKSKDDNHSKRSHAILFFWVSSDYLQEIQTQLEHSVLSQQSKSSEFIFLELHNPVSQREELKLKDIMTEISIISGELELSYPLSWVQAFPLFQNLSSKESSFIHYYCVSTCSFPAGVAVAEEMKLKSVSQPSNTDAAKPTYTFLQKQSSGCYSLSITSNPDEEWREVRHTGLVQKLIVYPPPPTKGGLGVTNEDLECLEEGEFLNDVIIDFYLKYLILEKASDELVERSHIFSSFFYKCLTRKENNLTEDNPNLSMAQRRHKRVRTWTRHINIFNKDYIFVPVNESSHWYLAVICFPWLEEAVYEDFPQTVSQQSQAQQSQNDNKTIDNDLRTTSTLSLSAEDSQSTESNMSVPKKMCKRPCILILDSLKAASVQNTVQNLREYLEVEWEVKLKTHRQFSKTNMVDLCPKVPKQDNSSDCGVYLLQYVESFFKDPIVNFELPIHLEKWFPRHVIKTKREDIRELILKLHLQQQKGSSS

[2] = biological target: T3, Oxysterols receptor LXR-beta (Homo sapiens, UniProt P55055); format: functional, cell-based;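 also: Cell-based luminescence dose-response assay of agonist activity at LXR, run as a confirmatory counterscreen to a daf-12 agonist screen; HEK293 cells with Gal4-LXR fusion and GAL4-driven luciferase reporter; agonist potency from rising luciferase signal of a Gal4-LXR reporter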
T3 sequence (P55055 whole entry): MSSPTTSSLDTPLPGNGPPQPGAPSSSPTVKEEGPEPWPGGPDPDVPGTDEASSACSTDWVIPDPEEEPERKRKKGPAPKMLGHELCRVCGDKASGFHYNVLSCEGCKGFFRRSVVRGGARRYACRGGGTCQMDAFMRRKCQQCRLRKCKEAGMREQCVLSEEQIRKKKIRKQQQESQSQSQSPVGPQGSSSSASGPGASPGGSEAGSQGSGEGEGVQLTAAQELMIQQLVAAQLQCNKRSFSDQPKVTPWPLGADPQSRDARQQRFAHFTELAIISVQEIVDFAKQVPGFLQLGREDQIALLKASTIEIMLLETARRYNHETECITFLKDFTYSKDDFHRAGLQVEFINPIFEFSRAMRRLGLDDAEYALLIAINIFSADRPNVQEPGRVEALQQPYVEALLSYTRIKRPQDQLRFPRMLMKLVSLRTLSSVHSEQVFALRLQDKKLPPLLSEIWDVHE

[3] = biological target: Tyrosine-protein kinase JAK2 (Homo sapiens, UniProt O60674); format: functional;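 also: JAK2 tested as one member of a kinase panel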
[4] = biological target: Hepatocyte growth factor receptor (Homo sapiens, UniProt P08581); format: functional;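 also: kinase panel profiling across the kinome, with MET as the panel member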
[5] = biological target: Dual specificity mitogen-activated protein kinase kinase 2 (Homo sapiens, UniProt P36507); assay: Navigating the Kinome. Panel member name: MAP2K2; format: functional
[6] = biological target: Dual specificity protein kinase CLK2 (Homo sapiens, UniProt P49760); format: functional
[7] = biological target: Calcium/calmodulin-dependent protein kinase type II subunit alpha (Homo sapiens, UniProt Q9UQM7); assay: Navigating the Kinome. Panel member name: CAMK2A; format: functional
[8] = biological target: Tyrosine-protein kinase receptor TYRO3 (Homo sapiens, UniProt Q06418); format: functional;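 also: TYRO3 value obtained as one member of a kinome-wide profiling panel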
[9] = biological target: Vascular endothelial growth factor receptor 1 (Homo sapiens, UniProt P17948); format: functional;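 also: measured within a kinome-wide profiling panel, FLT1 as the panel member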
[10] = biological target: Glycogen synthase kinase-3 beta (Homo sapiens, UniProt P49841); format: functional;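 also: value comes from a broad kinome profiling panel, with GSK3B as the panel member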
[11] = biological target: Receptor-type tyrosine-protein kinase FLT3 (Homo sapiens, UniProt P36888); format: functional;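 also: FLT3 was tested as one member of a kinome-wide kinase panel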
Receptor-type tyrosine-protein kinase FLT3, sequence (P36888 whole entry): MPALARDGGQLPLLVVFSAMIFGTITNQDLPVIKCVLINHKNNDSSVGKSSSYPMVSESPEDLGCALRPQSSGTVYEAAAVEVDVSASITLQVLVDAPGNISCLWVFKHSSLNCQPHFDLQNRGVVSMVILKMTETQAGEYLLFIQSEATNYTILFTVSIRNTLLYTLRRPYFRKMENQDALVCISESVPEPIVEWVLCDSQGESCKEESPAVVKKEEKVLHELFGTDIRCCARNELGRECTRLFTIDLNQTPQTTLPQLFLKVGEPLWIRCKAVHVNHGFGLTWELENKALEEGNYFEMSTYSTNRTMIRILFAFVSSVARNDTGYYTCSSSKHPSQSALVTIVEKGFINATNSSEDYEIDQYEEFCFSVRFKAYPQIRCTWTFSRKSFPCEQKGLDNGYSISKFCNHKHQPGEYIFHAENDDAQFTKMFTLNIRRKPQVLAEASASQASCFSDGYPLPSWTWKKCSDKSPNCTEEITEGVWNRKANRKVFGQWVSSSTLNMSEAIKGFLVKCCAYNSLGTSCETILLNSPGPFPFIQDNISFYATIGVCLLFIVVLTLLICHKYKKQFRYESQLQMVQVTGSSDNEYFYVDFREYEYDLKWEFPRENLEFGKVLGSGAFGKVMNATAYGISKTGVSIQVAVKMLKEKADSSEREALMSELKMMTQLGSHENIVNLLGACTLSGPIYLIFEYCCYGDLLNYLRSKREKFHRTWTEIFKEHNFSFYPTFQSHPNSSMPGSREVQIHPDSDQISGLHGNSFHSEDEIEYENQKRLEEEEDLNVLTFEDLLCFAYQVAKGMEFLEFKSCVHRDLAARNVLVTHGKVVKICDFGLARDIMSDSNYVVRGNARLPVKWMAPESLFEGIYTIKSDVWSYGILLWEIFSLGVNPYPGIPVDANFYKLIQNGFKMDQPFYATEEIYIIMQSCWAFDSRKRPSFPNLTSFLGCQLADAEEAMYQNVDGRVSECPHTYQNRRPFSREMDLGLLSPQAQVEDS

Tyrosine-protein kinase receptor TYRO3, sequence (Q06418 whole entry): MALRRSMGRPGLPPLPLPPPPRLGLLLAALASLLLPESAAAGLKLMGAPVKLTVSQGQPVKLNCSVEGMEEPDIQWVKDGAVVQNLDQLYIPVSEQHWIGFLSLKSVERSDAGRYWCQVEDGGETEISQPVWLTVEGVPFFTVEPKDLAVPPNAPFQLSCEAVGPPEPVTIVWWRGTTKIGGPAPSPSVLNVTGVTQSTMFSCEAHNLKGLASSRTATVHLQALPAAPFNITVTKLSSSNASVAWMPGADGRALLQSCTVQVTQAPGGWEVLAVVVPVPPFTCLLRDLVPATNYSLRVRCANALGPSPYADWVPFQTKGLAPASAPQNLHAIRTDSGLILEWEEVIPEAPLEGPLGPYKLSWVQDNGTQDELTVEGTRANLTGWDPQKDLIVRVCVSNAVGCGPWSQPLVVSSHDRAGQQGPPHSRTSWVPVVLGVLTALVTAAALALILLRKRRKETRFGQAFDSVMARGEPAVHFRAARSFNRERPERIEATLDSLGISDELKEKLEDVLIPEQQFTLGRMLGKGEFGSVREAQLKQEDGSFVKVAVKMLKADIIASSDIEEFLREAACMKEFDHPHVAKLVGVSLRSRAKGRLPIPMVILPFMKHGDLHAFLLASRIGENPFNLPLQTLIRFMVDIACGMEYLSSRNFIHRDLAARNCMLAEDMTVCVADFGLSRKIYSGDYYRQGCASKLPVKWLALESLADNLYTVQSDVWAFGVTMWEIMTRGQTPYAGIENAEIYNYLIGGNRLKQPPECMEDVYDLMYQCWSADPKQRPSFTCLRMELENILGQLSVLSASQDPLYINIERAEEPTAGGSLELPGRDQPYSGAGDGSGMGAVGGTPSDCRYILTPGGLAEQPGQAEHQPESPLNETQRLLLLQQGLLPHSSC
Estrogen receptor beta, sequence (Q92731 whole entry): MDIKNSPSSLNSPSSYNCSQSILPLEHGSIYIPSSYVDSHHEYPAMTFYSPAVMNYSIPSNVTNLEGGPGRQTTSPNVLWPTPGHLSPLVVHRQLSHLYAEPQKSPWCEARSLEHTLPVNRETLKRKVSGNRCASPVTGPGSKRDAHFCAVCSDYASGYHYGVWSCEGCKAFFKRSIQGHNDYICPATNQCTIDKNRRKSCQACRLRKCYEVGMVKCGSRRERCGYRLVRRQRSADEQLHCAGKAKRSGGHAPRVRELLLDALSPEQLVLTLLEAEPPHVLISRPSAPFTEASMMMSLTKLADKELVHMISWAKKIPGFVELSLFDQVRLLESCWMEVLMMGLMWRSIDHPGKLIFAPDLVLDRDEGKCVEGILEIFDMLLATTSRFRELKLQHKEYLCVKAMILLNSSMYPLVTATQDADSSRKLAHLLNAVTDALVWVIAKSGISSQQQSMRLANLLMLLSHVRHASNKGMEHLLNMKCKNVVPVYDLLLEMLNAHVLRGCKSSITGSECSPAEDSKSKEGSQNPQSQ
Tyrosine-protein kinase JAK2, sequence (O60674 whole entry): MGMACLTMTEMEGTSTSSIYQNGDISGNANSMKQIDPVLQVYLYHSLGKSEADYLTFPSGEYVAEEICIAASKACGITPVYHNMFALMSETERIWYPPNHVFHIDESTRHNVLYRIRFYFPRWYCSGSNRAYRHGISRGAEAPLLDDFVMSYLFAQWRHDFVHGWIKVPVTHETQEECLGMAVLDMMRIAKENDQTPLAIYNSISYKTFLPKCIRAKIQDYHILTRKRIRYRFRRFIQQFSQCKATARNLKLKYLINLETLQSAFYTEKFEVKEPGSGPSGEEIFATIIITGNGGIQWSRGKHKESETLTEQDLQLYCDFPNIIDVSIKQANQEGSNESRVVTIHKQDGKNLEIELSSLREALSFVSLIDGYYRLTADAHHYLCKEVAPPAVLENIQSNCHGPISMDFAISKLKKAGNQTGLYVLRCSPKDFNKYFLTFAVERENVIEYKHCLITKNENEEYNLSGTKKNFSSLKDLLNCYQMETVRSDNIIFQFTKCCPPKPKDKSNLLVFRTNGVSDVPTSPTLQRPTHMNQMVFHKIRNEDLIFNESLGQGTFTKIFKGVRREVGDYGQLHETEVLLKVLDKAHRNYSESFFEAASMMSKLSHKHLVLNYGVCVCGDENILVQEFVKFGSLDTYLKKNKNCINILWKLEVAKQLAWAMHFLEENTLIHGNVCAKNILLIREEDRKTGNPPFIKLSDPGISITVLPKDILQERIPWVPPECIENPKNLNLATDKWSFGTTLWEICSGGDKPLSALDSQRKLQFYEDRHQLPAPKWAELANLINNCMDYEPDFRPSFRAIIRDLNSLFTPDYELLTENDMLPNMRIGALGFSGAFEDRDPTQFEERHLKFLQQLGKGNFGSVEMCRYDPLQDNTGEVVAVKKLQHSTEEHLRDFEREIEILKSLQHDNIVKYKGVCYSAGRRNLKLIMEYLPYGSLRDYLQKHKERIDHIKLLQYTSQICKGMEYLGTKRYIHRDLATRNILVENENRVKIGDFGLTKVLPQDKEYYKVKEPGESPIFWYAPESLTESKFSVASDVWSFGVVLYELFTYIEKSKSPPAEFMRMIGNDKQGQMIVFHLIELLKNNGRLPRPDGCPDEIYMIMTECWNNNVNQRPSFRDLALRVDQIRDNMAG
Glycogen synthase kinase-3 beta, sequence (P49841 whole entry): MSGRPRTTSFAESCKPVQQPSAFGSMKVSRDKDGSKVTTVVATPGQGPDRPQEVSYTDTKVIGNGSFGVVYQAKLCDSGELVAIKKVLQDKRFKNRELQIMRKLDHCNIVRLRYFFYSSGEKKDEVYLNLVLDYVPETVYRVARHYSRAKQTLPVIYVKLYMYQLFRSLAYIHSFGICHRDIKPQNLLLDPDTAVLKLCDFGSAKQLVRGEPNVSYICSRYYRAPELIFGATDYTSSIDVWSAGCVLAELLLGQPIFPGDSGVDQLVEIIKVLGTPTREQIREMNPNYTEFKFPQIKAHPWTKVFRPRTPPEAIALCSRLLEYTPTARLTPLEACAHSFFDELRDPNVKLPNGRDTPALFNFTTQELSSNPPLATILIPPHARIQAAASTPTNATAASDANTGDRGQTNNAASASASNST
Dual specificity mitogen-activated protein kinase kinase 2, sequence (P36507 whole entry): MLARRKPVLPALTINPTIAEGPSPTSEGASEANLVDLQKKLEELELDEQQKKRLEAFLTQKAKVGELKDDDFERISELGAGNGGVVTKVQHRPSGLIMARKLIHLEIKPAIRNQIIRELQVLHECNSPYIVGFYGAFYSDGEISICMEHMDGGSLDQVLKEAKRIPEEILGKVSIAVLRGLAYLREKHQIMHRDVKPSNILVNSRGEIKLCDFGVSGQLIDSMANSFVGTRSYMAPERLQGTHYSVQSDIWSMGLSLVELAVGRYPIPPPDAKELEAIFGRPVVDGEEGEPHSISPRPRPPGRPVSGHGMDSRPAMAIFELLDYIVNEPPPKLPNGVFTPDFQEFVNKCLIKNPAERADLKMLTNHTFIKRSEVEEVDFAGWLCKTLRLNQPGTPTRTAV
Calcium/calmodulin-dependent protein kinase type II subunit alpha, sequence (Q9UQM7 whole entry): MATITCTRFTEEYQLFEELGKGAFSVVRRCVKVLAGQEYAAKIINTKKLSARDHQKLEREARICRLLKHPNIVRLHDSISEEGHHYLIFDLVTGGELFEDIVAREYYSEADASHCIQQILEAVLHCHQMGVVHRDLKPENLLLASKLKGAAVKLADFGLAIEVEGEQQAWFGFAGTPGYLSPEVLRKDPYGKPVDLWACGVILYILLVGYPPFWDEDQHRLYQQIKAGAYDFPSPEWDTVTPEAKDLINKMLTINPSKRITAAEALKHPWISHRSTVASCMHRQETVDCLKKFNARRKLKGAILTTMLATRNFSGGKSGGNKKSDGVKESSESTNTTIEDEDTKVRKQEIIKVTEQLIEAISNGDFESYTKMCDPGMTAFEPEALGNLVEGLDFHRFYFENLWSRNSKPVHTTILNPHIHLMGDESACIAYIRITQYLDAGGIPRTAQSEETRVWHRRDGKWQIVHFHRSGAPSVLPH

SMILES: CN1CCN(C(c2ccc(C(F)(F)F)cc2)c2cc(Cl)c3cccnc3c2O)CC1 (centres undefined)
- EC50 (Streptococcus): 6.51 µM (active)
- EC50 (Protein RecA): 0.932 µM (active)

SMILES: NC(=O)c1c(NC(=O)c2cc3ccccc3o2)sc2c1CCC2
- IC50 (Estrogen receptor beta): > 50 µM (not active)
- IC50 [1]: 3.74 µM (active)
- EC50 [2]: > 67.5 µM (inactive)

SMILES: O=C(NC(CCO)c1ccccc1)c1ccc(-c2ccncc2)cc1 (centres undefined)
- Ki [3]: > 2.51 µM (inactive)
- Ki [4]: > 2.51 µM (inactive)
- Ki [5]: > 3.98 µM (inactive)
- Ki [6]: > 3.98 µM (inactive)
- Ki [7]: > 7.94 µM (inactive)
- Ki [8]: > 3.16 µM (inactive)
- Ki [9]: > 3.98 µM (inactive)
- Ki [10]: 1.26 µM (active)
- Ki [11]: > 3.16 µM (inactive)
